# From patent publication US7101841B2, “Carbohydrate-specific peptides which have a strong affinity and preparations method thereof” (Korea Institute of Science and Technology, priority 2001, dated 2006)
# Tests used:
# sLeX [1] = assay: BIAcore measurement of binding capacity of peptides on sLeX-BSA fixed CM5 chip
# Protocol: To measure the binding capacity of peptides, BIAcore was used. CM5 made by gold and protruded with CM-dextran layer and carboxylic acid group was used as a chip. BSA (Oxford Glyco Science, USA) binding with sLeX was used as a ligand for fixing.
# At first, chip surface was stabilized with 100 mM HEPES buffer solution (pH 8.0), and activated with the mixture of 0.4 M EDC (1-ethyl-3-[3′-dimethylaminopropyl]carbodiimide) and 0.1 M NHS (N-hydroxysuccunimide). And then, sodium acetate buffer(10 mM, pH 4.0) containing 0.05 mg/ml of sLeX-BSA or BSA was injected and fixed onto the surface of CM5 chip until the value of RU reached to 6,000. Chip surface remaining active state was substituted with 1.0 M ethanolamine. Target molecules were bound to CM5 chip, and binding buffer (0.01 M HEPES, […], 3 mM EDTA, 0.005% polysorbate 20, pH 7.4) was flowed on the chip surface for equilibration, and finally, bindng capacity was determined by flowing binding buffer containing peptides according to the concentrations. At that time, peptides were combined with their targets with different speed and slope according to the affinity of peptides and target molecules and the affinity between target molecules was measured from the each result. […]
# sLeX [2] = assay: Peptide phage library biopanning against sLeX-BSA; assay type: binding; settings: after three rounds of biopanning
# Protocol: As described above, in order to obtain molecules having strong binding capacity to carbohydrates using repetitive structure of peptide, sialyl Lewis X (sLeX) existing in tumor cells or inflammation response cells was selected as a target, and a peptide binding to the sLeX well was selected by using peptide phage library and biopanning method. Particularly, sLeX-BSA(Oxford Glycoscience) was added into 0.1 M NaHCO3(pH 8.6) buffer solution until the concentration reached to 100 μg/ml. 150 μl of the above solution(sLeX-BSA 0.1 M NaHCO3) was loaded into one well of 96-well plate, and 150 μl of BSA 0.1 M NaHCO3(pH 8.6) was also loaded into the other well. The well plate was shaken to soak completely, and left for overnight at 4° C. The solution in 96-well plate was washed, followed by adding 200 μl of blocking solution(0.1 M ethanol amine, 0.1 M NaHCO3, pH 8.6) into the wells, and then the plate was left for overnight at 4° C. After blocking solution was removed from the 96-well plate, the plate was washed with 200 μl of TBS-T(50 mM Tris-HCl, pH 7.5, 150 mM NaCl, 0.1% [v/v] Tween-20). […]
# 180 μl of extraction solution was loaded into 3 ml of ER2537 culture solution(OD600=0.2–0.3) and cultured for 4.5 hours at 37° C. while shaking with 250 rpm. […] The amplified phage obtained above was diluted with various concentrations, and the proper concentration was calculated as follows. […]
Substance,"Kd (sLeX [1]; BIAcore, sLeX-BSA fixed on CM5 chip, read-out: Kp against sLeX)","strength of binding converted into the height of sensorgram (sLeX [1]; peptide flowed at 62.5 μM, sLeX-BSA fixed chip, FIG. 1)",binding capacity to sLeX relative to other selected peptides (sLeX [2])
AHWIPRYSSPAT [monomer],25.4 mM,16 RU,
peptide represented by the SEQ. ID NO.1: peptide composed of 12 amino acids selected by phage display for binding to sLeX (AHWIPRYSSPAT; synthetic peptide which have a strong affinity to carbohydrate),,,better than that of the other peptides
